Three compounds from patent EP0067666A1, “Salts of antimicrobial naphthyridine and quinoline compounds and their production” (priority 1981, dated 1982) can be followed below.

Data set [1] in a line: Lyophilization of the salts. Type of data set: physicochemical. From the text: The unpredictable characteristics of the salts prepared from Compounds A and B are clear from consideration of the results reported in Table 1. These characteristics were considered in view of the necessary requirements (a-f) outlined above for preparing a useful parenteral dosage form. […] From the data in Table 1, the lactate salts appear to be useful; however, lactic acid cannot be consistently obtained in a satisfactory grade in presently available commercial forms and is therefore not useful. The choline and sodium salts were ruled out based on the pH of their respective solutions.

Data set [2] relates to E. coli Vogel. The experiment in a line: Antibacterial activity, MIC. The class given is cell-based. Conditions: Escherichia coli, based on content of compound B.
For data set [3], the system named is Klebsiella pneumoniae MGH-2. The experiment in a line: Acute mouse protection test. The class given is in vivo. As to conditions: subcutaneous, single dose given at time of challenge, compound B series.
In data set [4] the test system is Strep. faecalis MGH-2. The experiment in a line: Antibacterial activity, MIC. Conditions: Enterococcus faecalis, MGH2, based on content of compound B. Type of data set: cell-based.
Data set [5] relates to Proteus retgeri M 1771. Description: Antibacterial activity, MIC. Type of data set: cell-based. As to conditions: based on content of compound B.
Data set [6] relates to Escherichia coli Vogel. Description: Acute mouse protection test. Type of data set: in vivo. As to conditions: Escherichia coli, single dose given at time of challenge, compound B series.
The nature of data set [7]: Two-way crossover oral trial, drug blood levels by disk agar diffusion microbiological assay. Type of data set: in vivo. Conditions: Beagle dogs, single 25 mg/kg (parent compound equivalent) oral dose in hard gelatine capsules; compound B compared with compound D as the glutamate. How it is done: Drug blood levels were determined by a disk agar diffusion microbiological assay.

The subject of data set [8] is Strep. pneumoniae SV-1. The experiment in a line: Antibacterial activity, MIC. The class given is cell-based. Conditions: Streptococcus pneumoniae, SV1, based on content of compound B.
Data set [9] has as its system Pseudo. aeruginosa UI-18. The experiment in a line: Antibacterial activity, MIC. Type of data set: cell-based. As to conditions: based on content of compound B.
In data set [10] the test system is Entero cloacae MA 2646. The experiment in a line: Antibacterial activity, MIC. As to conditions: based on content of compound B. The class given is cell-based.
The subject of data set [11] is Staph. aureus H 228. The experiment in a line: Antibacterial activity, MIC. As to conditions: Staphylococcus aureus, H228, based on content of compound B. The class given is cell-based.
The subject of data set [12] is Staph. aureus UC-76. The experiment in a line: Antibacterial activity, MIC. The class given is cell-based. Conditions: based on content of compound B.
Data set [13] concerns Klebs. pneumoniae MGH-2. The experiment in a line: Antibacterial activity, MIC. The class given is cell-based. As to conditions: Klebsiella pneumoniae, MGH2, based on content of compound B.
For data set [14], the system named is Strep. pyogenes C-203. The experiment in a line: Antibacterial activity, MIC. As to conditions: based on content of compound B. The class given is cell-based.
The subject of data set [15] is Staphylococcus aureus UC-76. The experiment in a line: Acute mouse protection test. The class given is in vivo. As to conditions: single dose given at time of challenge, compound B series.

Converted amounts (≈) assume the structure as drawn. Where two headings read alike, the source gives them in different places.

`CCn1cc(C(=O)O)c(=O)c2cc(F)c(N3CCNCC3)cc21` [A acetate]: the lyophilization result in [1] is “cannot be successfully lyophilized”.
Take `CCn1cc(C(=O)O)c(=O)c2cc(F)c(N3CCNCC3)nc21` [B acetate]: the lyophilization entry in data set [1] is recorded as “cannot be successfully lyophilized”.
For the compound `CCn1cc(C(=O)O)c(=O)c2cc(F)c(N3CCNCC3)nc21` [Compound B, 1-ethyl-6-fluoro-1,4-dihydro-4-oxo-7-(1-piperazinyl)-1,8-naphthyridine-3-carboxylic acid, reference compound], the MIC turned out to be 0.2 mg/L (≈ 0.624 µM) in data set [2]; 1.6 mg/L (≈ 4.99 µM) in data set [4]; 0.1 mg/L (≈ 0.312 µM) in [5]; 3.1 mg/L (≈ 9.68 µM) in data set [8]; 0.2 mg/L (≈ 0.624 µM) in data set [10]; 3.1 mg/L (≈ 9.68 µM) in data set [11]. Further, the minimal inhibitory concentration (MIC) in data set [13] turned out to be 0.1 mg/L (≈ 0.312 µM). The “Single sc Dose PD50 (mg/kg) ± 95% Confidence Limits Klebsiella pneumoniae MGH-2” value in data set [3] was found to be 2.6 ± 0.6 mg/kg. In addition, the ED50 was 3.1 ± 0.7 mg/kg in data set [6] (po, read-out: Single po Dose PD50 (mg/kg) ± 95% Confidence Limits Escherichia coli Vogel); 1.4 ± 0.4 mg/kg in data set [6] (sc, subcutaneous, read-out: Single sc Dose PD50 (mg/kg) ± 95% Confidence Limits Escherichia coli Vogel); 14 ± 7 mg/kg in [15] (Staphylococcus aureus, UC76, po, oral, read-out: Single po Dose PD50 (mg/kg) ± 95% Confidence Limits Staphylococcus aureus UC-76). The drug half-life entry in data set [7] is reported as “no significant difference”. Also, in [7], the peak blood level result is reported as “no significant difference”. In data set [9], the “MIC µg/ml Pseudo. aeruginosa UI-18” value came to 0.8 µg/mL (≈ 2.5 µM). Also, the “MIC µg/ml Staph. aureus UC-76” value in data set [12] came out at 0.2 µg/mL (≈ 0.624 µM). Besides, the “MIC µg/ml Strep. pyogenes C-203” value in [14] was 3.1 µg/mL (≈ 9.68 µM). In addition, the “Single sc Dose PD50 (mg/kg) ± 95% Confidence Limits Staphylococcus aureus UC-76” value in data set [15] (subcutaneous) is 7.4 ± 2.2 mg/kg.

In general, MIC refers to the lowest concentration that inhibits growth of the organism. Low readings indicate greater potency, high ones weaker potency.
